One assay concerns the target AKT-3 (Homo sapiens, UniProt Q9Y243). Nature of the assay: AKT-3 inhibition assay (standard coupled enzyme assay). The class given is biochemical. As to conditions: 170 μM ATP, 200 μM peptide, 45 nM AKT, 30° C.
Chain of AKT-3 (Q9Y243 whole entry): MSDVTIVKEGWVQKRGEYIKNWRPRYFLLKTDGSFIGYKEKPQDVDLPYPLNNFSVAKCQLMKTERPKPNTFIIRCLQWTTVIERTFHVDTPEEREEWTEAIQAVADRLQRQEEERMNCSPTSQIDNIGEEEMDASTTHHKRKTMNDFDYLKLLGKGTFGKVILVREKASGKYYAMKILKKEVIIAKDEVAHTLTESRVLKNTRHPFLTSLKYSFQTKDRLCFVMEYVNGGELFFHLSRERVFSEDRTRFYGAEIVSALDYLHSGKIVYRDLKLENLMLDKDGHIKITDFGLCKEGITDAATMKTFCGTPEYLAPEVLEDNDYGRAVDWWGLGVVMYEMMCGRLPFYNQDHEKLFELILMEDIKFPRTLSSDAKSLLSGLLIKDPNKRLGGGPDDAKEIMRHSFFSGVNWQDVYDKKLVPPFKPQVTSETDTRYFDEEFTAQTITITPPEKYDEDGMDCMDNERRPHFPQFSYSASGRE
For the molecule `CCCNCCCNC(C(=O)Nc1ccc2[nH]ncc2c1)c1cccc(Cl)c1` (stereo not drawn) [Compound I-68], the inhibition constant (Ki) was in the range of 1 to 10 µM.

Turning to `NCCC(C(=O)Nc1ccc2[nH]nc(NC(=O)Cc3ccccc3)c2c1)c1ccc(Cl)c(Cl)c1` (stereo not drawn) [Compound I-192], the Ki fell in the range of 1 to 10 µM.

In turn, `Nc1n[nH]c2ccc(NC(=O)Cc3ccc(Cl)c(Cl)c3)cc12` [Compound I-83] yielded a Ki of 1 to 10 µM.

`NCCC(C(=O)Nc1ccc2[nH]nc(-c3cccc(C(F)(F)F)c3)c2c1)c1ccc(Cl)c(Cl)c1` (stereo not drawn) [Compound I-224]: the Ki was below 1 µM.

Take `CCNCCNC(C(=O)Nc1ccc2[nH]ncc2c1)c1cccc(Cl)c1` (stereo not drawn) [Compound I-63]: the Ki is 1 to 10 µM.

Regarding `NCCC(C(=O)Nc1ccc2[nH]nc(-c3cccc(OC(F)(F)F)c3)c2c1)c1ccc(Cl)c(Cl)c1` (stereo not drawn) [Compound I-256], the inhibitory constant (Ki) is below 1 µM.

For the molecule `Nc1n[nH]c2ccc(NC(=O)Cc3cccc(Cl)c3)cc12` [Compound I-82], the Ki lay within 10 to 20 µM.

On to `NCCC(C(=O)Nc1ccc2[nH]nc(NC(=O)c3cccc(Cn4ccnc4)c3)c2c1)c1ccc(Cl)c(Cl)c1` (stereo not drawn) [Compound I-217], for which the inhibition constant Ki is below 1 µM.

As to `CNC(=O)NCCC(C(=O)Nc1ccc2[nH]ncc2c1)c1ccc(Cl)c(Cl)c1` (stereo not drawn) [Compound I-152], the inhibition constant Ki lay in the range of 1 to 10 µM.

Take `NCCNC(C(=O)Nc1ccc2[nH]ncc2c1)c1ccc(Oc2ccccc2)c(Cl)c1` (stereo not drawn) [Compound I-72]: the Ki lay within 1 to 10 µM.

Consider `NCCC(C(=O)Nc1ccc2[nH]ncc2c1)c1cccc(O)c1` (stereo not drawn) [Compound I-115], for which the Ki is below 1 µM.

As for `COc1ccc(C(NCCN)C(=O)Nc2ccc3[nH]ncc3c2)cc1Cl` (stereo not drawn) [Compound I-71], the Ki was 1 to 10 µM.

As to `CNCCNC(C(=O)Nc1ccc2[nH]ncc2c1)c1cccc(Cl)c1` (stereo not drawn) [Compound I-61], the inhibition constant Ki was below 1 µM.

Turning to `CC(=O)c1n[nH]c2ccc(NC(=O)C(CN)c3ccc(Cl)c(Cl)c3)cc12` (stereo not drawn) [Compound I-255], the Ki fell in the range of 1 to 10 µM.

`O=C(Nc1ccc2[nH]ncc2c1)C(NCCc1ccccn1)c1cccc(Cl)c1` (stereo not drawn) [Compound I-66]: the Ki was in the range of 10 to 20 µM.

`CN(C)CCNC(C(=O)Nc1ccc2[nH]ncc2c1)c1cccc(Cl)c1` (stereo not drawn) [Compound I-62] yielded a Ki below 1 µM.

In turn, `COC(=O)NCCC(C(=O)Nc1ccc2[nH]ncc2c1)c1ccc(Cl)c(Cl)c1` (stereo not drawn) [Compound I-151] gave a Ki of 1 to 10 µM.

Consider `N[C@@H](Cc1ccc(Cl)c(Cl)c1)C(=O)Nc1ccc2[nH]ncc2c1` [Compound I-95], for which the inhibition constant (Ki) lay in the range of 10 to 20 µM.

For `NCCC(C(=O)Nc1ccc2[nH]nc(NC(=O)c3cccc(CN4CCCCC4)c3)c2c1)c1ccc(Cl)c(Cl)c1` (stereo not drawn) [Compound I-214], the Ki was below 1 µM.

`NCCNC(C(=O)Nc1ccc2[nH]ncc2c1)c1ccc(Cl)cc1` (stereo not drawn) [Compound I-70] had a Ki below 1 µM.

For `CCN(CC)Cc1cccc(C(=O)Nc2n[nH]c3ccc(NC(=O)C(CCN)c4ccc(Cl)c(Cl)c4)cc23)c1` (stereo not drawn) [Compound I-216], the Ki is below 1 µM.

Regarding `O=C(Nc1ccc2[nH]ncc2c1)C(O)c1ccc(Br)cc1` (stereo not drawn) [Compound I-37], the Ki fell in the range of 10 to 20 µM.

As for `CCc1n[nH]c2ccc(NC(=O)[C@H](O)c3cccc(Cl)c3)cc12` [Compound I-79], the Ki is 10 to 20 µM.

With `NCCC(C(=O)Nc1ccc2[nH]nc(NC(=O)c3cccc(CN4CCNCC4)c3)c2c1)c1ccc(Cl)c(Cl)c1` (stereo not drawn) [Compound I-218], the Ki is below 1 µM.

In the case of `O=C(Nc1ccc2[nH]ncc2c1)C(NCCNCc1ccccc1)c1cccc(Cl)c1` (stereo not drawn) [Compound I-64], the Ki is below 1 µM.

Molecule `O=C(Nc1ccc2[nH]ncc2c1)C(NCc1ccccn1)c1cccc(Cl)c1` (stereo not drawn) [Compound I-65] returned an inhibition constant (Ki) of 10 to 20 µM.

Regarding `NCCC(C(=O)Nc1ccc2[nH]nc(NC(=O)c3cccc(SC(F)F)c3)c2c1)c1ccc(Cl)c(Cl)c1` (stereo not drawn) [Compound I-219], the inhibitory constant (Ki) is below 1 µM.

Molecule `CC(=O)c1cccc(C(=O)Nc2n[nH]c3ccc(NC(=O)C(CCN)c4ccc(Cl)c(Cl)c4)cc23)c1` (stereo not drawn) [Compound I-220] gave an inhibitory constant (Ki) below 1 µM.

`NCCC(C(=O)Nc1ccc2[nH]nc(-c3cccc(-c4ccccc4)c3)c2c1)c1ccc(Cl)c(Cl)c1` (stereo not drawn) [Compound I-223] came in with a Ki below 1 µM.

For `NCC(C(=O)Nc1ccc2[nH]ncc2c1)c1cccc(Cl)c1` (stereo not drawn) [Compound I-157], the Ki fell in the range of 1 to 10 µM.

`NC(C(=O)Nc1ccc2[nH]ncc2c1)c1ccc(Cl)cc1` (stereo not drawn) [Compound I-50] yielded an inhibition constant (Ki) of 1 to 10 µM.

`NCC(=O)NC(C(=O)Nc1ccc2[nH]ncc2c1)c1cccc(Cl)c1` (stereo not drawn) [Compound I-74, 2-(2-Amino-acetylamino)-2-(3-chloro-phenyl)-N-(1H-indazol-5-yl)-acetamide] returned a Ki below 1 µM.

In turn, `COc1ccc(Br)cc1CC(=O)Nc1ccc2[nH]ncc2c1` [Compound I-94] came in with an inhibitory constant (Ki) of 10 to 20 µM.

`NCC(C(=O)Nc1cc(-c2ccccc2)c2[nH]ncc2c1)c1ccc(Cl)c(Cl)c1` (stereo not drawn) [Compound I-146]: the Ki was in the range of 10 to 20 µM.

As to `NCCCNC(C(=O)Nc1ccc2[nH]ncc2c1)c1cccc(Cl)c1` (stereo not drawn) [Compound I-60], the Ki is below 1 µM.

The molecule `NCCC(C(=O)Nc1ccc2[nH]nc(NC(=O)c3cccc(CN4CCOCC4)c3)c2c1)c1ccc(Cl)c(Cl)c1` (stereo not drawn) [Compound I-215] showed a Ki below 1 µM.

For the molecule `O=C(Cc1ccc(Cl)cc1)Nc1ccc2[nH]ncc2c1` [Compound I-5], the inhibition constant Ki was in the range of 1 to 10 µM.

For the molecule `N[C@H](C(=O)Nc1ccc2[nH]ncc2c1)c1ccccc1` [Compound I-49], the inhibition constant Ki lay in the range of 1 to 10 µM.

For the molecule `CS(=O)(=O)c1cccc(C(=O)Nc2n[nH]c3ccc(NC(=O)C(CCN)c4ccc(Cl)c(Cl)c4)cc23)c1` (stereo not drawn) [Compound I-221], the inhibition constant (Ki) is below 1 µM.

Take `NC(C(=O)Nc1ccc2[nH]ncc2c1)c1cccc(C(F)(F)F)c1` (stereo not drawn) [Compound I-53]: the Ki was in the range of 1 to 10 µM.

Regarding `NC(C(=O)Nc1ccc2[nH]ncc2c1)c1ccc2ccccc2c1` (stereo not drawn) [Compound I-58], the Ki was 1 to 10 µM.

The next assay concerns the target T1, PDK-1 (Homo sapiens, UniProt O15530).
T1 sequence (O15530 1-556): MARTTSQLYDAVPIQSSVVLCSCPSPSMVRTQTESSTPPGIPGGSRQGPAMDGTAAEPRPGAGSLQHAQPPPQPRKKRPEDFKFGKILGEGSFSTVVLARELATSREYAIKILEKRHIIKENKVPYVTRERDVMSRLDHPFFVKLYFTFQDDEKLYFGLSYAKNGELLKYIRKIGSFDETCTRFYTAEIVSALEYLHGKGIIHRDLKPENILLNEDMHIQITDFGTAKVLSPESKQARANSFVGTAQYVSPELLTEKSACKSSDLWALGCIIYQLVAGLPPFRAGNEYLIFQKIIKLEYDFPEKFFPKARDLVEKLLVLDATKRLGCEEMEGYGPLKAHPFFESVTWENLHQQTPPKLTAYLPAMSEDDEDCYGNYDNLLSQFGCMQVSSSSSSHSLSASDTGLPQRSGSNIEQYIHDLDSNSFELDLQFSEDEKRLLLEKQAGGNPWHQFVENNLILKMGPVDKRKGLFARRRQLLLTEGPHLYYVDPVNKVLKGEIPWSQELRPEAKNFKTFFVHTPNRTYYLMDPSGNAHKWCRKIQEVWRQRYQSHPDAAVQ
The assay is described as follows: PDK-1 inhibition assay (radioactive-phosphate incorporation). The format is biochemical. As to conditions: 40 μM ATP, 65 μM PDKtide, 25 nM PDK-1, 30° C.
Method: Compounds were screened for their ability to inhibit PDK-1 using a radioactive-phosphate incorporation assay (Pitt and Lee, J. Biomol. Screen., (1996) 1, 47). Assays were carried out in a mixture of 100 mM HEPES (pH 7.5), 10 mM MgCl2, 25 mM NaCl, 2 mM DTT. Final substrate concentrations in the assay were 40 μM ATP (Sigma Chemicals) and 65 μM peptide (PDKtide, Upstate, Lake Placid, N.Y.). Assays were carried out at 30° C. and 25 nM PDK-1 in the presence of ˜27.5 nCi/μL of [γ-^32P]ATP (Amersham Pharmacia Biotech, Amersham, UK). An assay stock buffer solution was prepared containing all of the reagents listed above, with the exception of ATP, and the test compound of interest. 15 μl of the stock solution was placed in a 96 well plate followed by addition of 1 μl of 0.5 mM DMSO stock containing the test compound (final compound concentration 25 μM, final DMSO concentration 5%). The plate was preincubated for about 10 minutes at 30° C. and the reaction initiated by addition of 4 μl ATP (final concentration 40 μM).
The reaction was stopped after 10 minutes by the addition of 100 μL 100 mM phosphoric acid, 0.01% Tween-20. A phosphocellulose 96 well plate (Millipore, Cat no. MAPHNOB50) was pretreated with 100 μL 100 mM phosphoric acid, 0.01% Tween-20 prior to the addition of the reaction mixture (100 μL). The spots were left to soak for at least 5 minutes, prior to wash steps (4×200 μL 100 mM phosphoric acid, 0.01% Tween-20). Alter drying, 20 μL Optiphase ‘SuperMix’ liquid scintillation cocktail (Perkin Elmer) was added to the well prior to scintillation counting (1450 Microbeta Liquid Scintillation Counter, Wallac).
Consider `COc1cccc(C(CCN)C(=O)Nc2ccc3[nH]nc(Nc4cccc(Cl)c4)c3c2)c1` (stereo not drawn) [Compound I-1029], for which the inhibitory constant (Ki) is above 3 µM.

`COc1cccc(C(CCNCc2ccccc2)C(=O)Nc2ccc3[nH]nc(C)c3c2)c1` (stereo not drawn) [Compound I-1016]: the inhibition constant (Ki) was above 3 µM.

As to `NCCC(C(=O)Nc1ccc2[nH]ncc2c1)c1ccccc1F` (stereo not drawn) [Compound I-1032], the Ki was below 1 µM.

`O=C(Nc1ccc2[nH]ncc2c1)C(CCNCc1ccccc1)c1ccccc1F` (stereo not drawn) [Compound I-1025]: the Ki is above 3 µM.

For `NCCC(C(=O)Nc1ccc2[nH]nc(-c3cccc(OC(F)(F)F)c3)c2c1)c1ccccc1` (stereo not drawn) [Compound I-239], the Ki lay in the range of 1 to 3 µM.

Regarding `NCCC(C(=O)Nc1ccc2[nH]nc(-c3cccc(-c4ccccc4)c3)c2c1)c1ccccc1` (stereo not drawn) [Compound I-228], the Ki lay within 1 to 3 µM.

With `CNc1n[nH]c2ccc(NC(=O)C(CCN)c3ccccc3OC)cc12` (stereo not drawn) [Compound I-1019], the Ki was above 3 µM.

With `CC(=O)O[C@@H](C(=O)Nc1ccc2[nH]ncc2c1)c1ccccc1` [Compound I-33], the inhibitory constant (Ki) was above 3 µM.

Take `NCCC(C(=O)Nc1ccc2[nH]nc(NC(=O)c3cccs3)c2c1)c1cccnc1` (stereo not drawn) [Compound I-272]: the Ki is below 1 µM.

`NCCC(C(=O)Nc1ccc2[nH]nc(-c3ccc(F)cc3)c2c1)c1ccccc1` (stereo not drawn) [Compound I-1027]: the Ki is below 1 µM.

Regarding `NCCC(C(=O)Nc1ccc2[nH]ncc2c1)c1cccc(O)c1` (stereo not drawn) [Compound I-1007], the inhibition constant (Ki) was 1 to 3 µM.

Consider `NCCC(C(=O)Nc1ccc2[nH]nc(C(=O)NCc3ccccc3)c2c1)c1ccccc1` (stereo not drawn) [Compound I-1036], for which the Ki was 1 to 3 µM.

With `Cc1n[nH]c2ccc(NC(=O)CCC(NCc3ccccc3)c3ccccc3F)cc12` (stereo not drawn) [Compound I-1024], the Ki is above 3 µM.

Take `NCCC(C(=O)Nc1ccc2[nH]nc(-c3ccc(Oc4ccccc4)cc3)c2c1)c1ccccc1` (stereo not drawn) [Compound I-265]: the inhibition constant Ki is below 1 µM.

As for `CC(C)c1cccc(-c2n[nH]c3ccc(NC(=O)C(CCN)c4ccccc4)cc23)c1` (stereo not drawn) [Compound I-229], the inhibitory constant (Ki) was above 3 µM.

With `Cc1cccc(-c2n[nH]c3ccc(NC(=O)C(CCN)c4ccccc4)cc23)c1` (stereo not drawn) [Compound I-238], the inhibition constant Ki was below 1 µM.

Turning to `Cc1n[nH]c2ccc(NC(=O)C(CCN)c3ccsc3)cc12` (stereo not drawn) [Compound I-1035], the Ki is below 1 µM.

`NCCC(C(=O)Nc1ccc2[nH]nc(CNC(=O)c3ccccc3)c2c1)c1ccccc1` (stereo not drawn) [Compound I-1042]: the Ki was above 3 µM.

As for `O=C(CCC(C(=O)N1CCN(Cc2ccccc2)CC1)c1ccccc1)Nc1ccc2[nH]ncc2c1` (stereo not drawn) [Compound I-1015], the Ki was above 3 µM.

`NCCC(C(=O)Nc1ccc2[nH]nc(-c3ccc(CCC(=O)O)cc3)c2c1)c1ccccc1` (stereo not drawn) [Compound I-264]: the Ki is below 1 µM.

In the case of `NCCC(C(=O)Nc1cc(-c2ccccc2Cl)c2[nH]ncc2c1)c1ccc(Cl)c(Cl)c1` (stereo not drawn) [Compound I-148], the Ki was above 3 µM.

For the molecule `NCCC(C(=O)Nc1ccc2[nH]nc(-c3ccc(C(N)=O)cc3)c2c1)c1ccccc1` (stereo not drawn) [Compound I-262], the Ki is below 1 µM.

For the molecule `Cc1n[nH]c2ccc(NC(=O)C(CCN)c3ccco3)cc12` (stereo not drawn) [Compound I-1037], the Ki is above 3 µM.

On to `NCCC(C(=O)Nc1ccc2[nH]nc(-c3cccc(C(N)=O)c3)c2c1)c1ccccc1` (stereo not drawn) [Compound I-248], for which the inhibitory constant (Ki) was below 1 µM.

In the case of `CC(=O)OC(C(=O)Nc1ccc2[nH]ncc2c1)c1ccccc1` (stereo not drawn) [Compound I-1020], the Ki is above 3 µM.
